Tests used:
Assay in all cases: Minimal inhibitory concentration (M.I.C.), agar dilution method
Conditions in all cases: TSA, inoculum 10^7 /ml
E. coli 0-111 = assay type: cell-based, Escherichia coli
Source text: The minimal inhibitory concentrations (M.I.C.) of some representative cephalosporin derivatives of this invention as produced by the procedures described in those examples and the minimal inhibitory concentrations of cephalothin [sodium 7-(2-thienylacetamido)-3-acetoxymethyl-3-cephem-4-carboxylate], cephaloridine [7-(2-thienylacetamido)-3-(1-pyridyl)methyl-3-cephem-4-carboxylic acid betaine] and cefazolin [sodium 7-(1H-tetrazol-1-yl)acetamido-3-(2-methyl-1,3,4-thiadiazol-5-yl)thiomethyl-3-cephem-4-carboxylate], which are among the clinically established and commercially available cephalosporins (as described, for example, in the New England Journal of Medicine 294, 24, 1976 and Journal of Pharmaceutical Science 64, 1899, 1975), both against various bacteria, as well as the therapeutic effects of some respresentative cephalosporin derivatives of this invention and of cephaloridine in infected mice, are shown in tables.
(§1) (a) Determination of minimal inhibitory concentrations (Tables 1 to 8):
(§2) Procedure: agar dilution method

P. vulgaris IFO 3988 = assay type: cell-based, Proteus vulgaris
Source text: as §1, §2

P. vulgaris GN 4413 = assay type: cell-based, Proteus vulgaris
Source text: as §1, §2

E. cloacae TN 1282 = assay type: cell-based, Enterobacter cloacae
Source text: as §1, §2

S. marcescens TN 24 = assay type: cell-based, Serratia marcescens
Source text: as §1, §2

S. marcescens IFO 12648 = assay type: cell-based, Serratia marcescens
Source text: as §1, §2

P. mirabilis GN 4359 = assay type: cell-based, Proteus mirabilis
Source text: as §1, §2

E. coli NIHJ JC-2 = assay type: cell-based, Escherichia coli
Source text: as §1, §2

E. coli T-7 = assay type: cell-based, Escherichia coli
Source text: as §1, §2

C. freundii GN 1706 = assay type: cell-based, Citrobacter freundii
Source text: as §1, §2

C. freundii GN 99 = assay type: cell-based, Citrobacter freundii
Source text: as §1, §2

P. rettgeri TN 338 = assay type: cell-based, Proteus rettgeri
Source text: as §1, §2

P. rettgeri GN4733 = assay type: cell-based, Proteus rettgeri
Source text: as §1, §2

P. morganii IFO 3168 = assay type: cell-based, Proteus morganii
Source text: as §1, §2

K. pneumoniae GN 3835 = assay type: cell-based, Klebsiella pneumoniae
Source text: as §1, §2

K. pneumoniae DT = assay type: cell-based, Klebsiella pneumoniae
Source text: as §1, §2

S. aureus 1840 = assay type: cell-based, Staphylococcus aureus
Source text: as §1, §2

S. aureus 209P = assay type: cell-based, Staphylococcus aureus
Source text: as §1, §2

| SMILES | minimal inhibitory concentration (M.I.C.) (E. coli 0-111) | minimal inhibitory concentration (M.I.C.) (P. vulgaris IFO 3988) | minimal inhibitory concentration (M.I.C.) (P. vulgaris GN 4413) | minimal inhibitory concentration (M.I.C.) (E. cloacae TN 1282) | minimal inhibitory concentration (M.I.C.) (S. marcescens TN 24) | minimal inhibitory concentration (M.I.C.) (S. marcescens IFO 12648) | minimal inhibitory concentration (M.I.C.) (P. mirabilis GN 4359) | minimal inhibitory concentration (M.I.C.) (E. coli NIHJ JC-2) | minimal inhibitory concentration (M.I.C.) (E. coli T-7) | minimal inhibitory concentration (M.I.C.) (C. freundii GN 1706) | minimal inhibitory concentration (M.I.C.) (C. freundii GN 99) | minimal inhibitory concentration (M.I.C.) (P. rettgeri TN 338) | minimal inhibitory concentration (M.I.C.) (P. rettgeri GN4733) | minimal inhibitory concentration (M.I.C.) (P. morganii IFO 3168) | minimal inhibitory concentration (M.I.C.) (K. pneumoniae GN 3835) | minimal inhibitory concentration (M.I.C.) (K. pneumoniae DT) | minimal inhibitory concentration (M.I.C.) (S. aureus 1840) | minimal inhibitory concentration (M.I.C.) (S. aureus 209P) |
| --- | --- | --- | --- | --- | --- | --- | --- | --- | --- | --- | --- | --- | --- | --- | --- | --- | --- | --- |
| CNC(=O)O/N=C(\C(=O)NC1C(=O)N2C(C(=O)O)=C(CSc3nnc(CC(N)=O)s3)CSC12)c1csc(=N)[nH]1 (stereo not drawn) [Example IV - 6] | ≤ 0.2 | ≤ 0.2 | 25 | 3.13 | 3.15 | 3.13 | 0.39 | ≤ 0.2 | 3.13 | ≤ 0.78 | ≤ 0.2 | ≤ 0.2 | 0.39 | ≤ 0.2 | 0.39 | ≤ 0.2 | 3.13 | 1.56 |
| CNC(=O)O/N=C(\C(=O)NC1C(=O)N2C(C(=O)O)=C(C)CSC12)c1csc(=N)[nH]1 (stereo not drawn) [Example II - 6] | 0.78 | 1.56 | 12.5 | 50 | 100 | 50 | 0.78 | 3.13 | 6.25 | 12.5 | 6.25 | 0.024 | 0.2 | 12.5 | 1.56 | 0.78 | 50 | 50 |
| CCCCNC(=O)O/N=C(\C(=O)NC1C(=O)N2C(C(=O)O)=C(C)CSC12)c1csc(=N)[nH]1 (stereo not drawn) [Example II - 23] | 6.25 | 12.5 | 50 | 100 | > 100 | 100 | 3.13 | 12.5 | 25 | 25 | 12.5 | 0.1 | 0.39 | 100 | 6.25 | 3.13 | 12.5 | 12.5 |
| CCCCNC(=O)O/N=C(\C(=O)NC1C(=O)N2C(C(=O)O)=C(COC(C)=O)CSC12)c1csc(=N)[nH]1 (stereo not drawn) [Example II - 20] | 0.024 | 0.2 | 12.5 | 6.25 | 12.5 | 6.25 | 0.1 | 0.1 | 3.13 | 0.39 | 0.39 | ≤ 0.012 | 0.05 | 0.39 | 0.39 | 0.05 | 1.56 | 1.56 |
| CCCNC(=O)O/N=C(\C(=O)NC1C(=O)N2C(C(=O)O)=C(CSc3nnnn3C)CSC12)c1csc(=N)[nH]1 (stereo not drawn) [Example II - 14] | 0.024 | 0.1 | 12.5 | 3.13 | 3.13 | 3.13 | 0.39 | 0.39 | 3.13 | 0.39 | 0.2 | ≤ 0.012 | 0.2 | 0.2 | 0.39 | 0.1 | 3.13 | 1.56 |
| CCNC(=O)O/N=C(\C(=O)NC1C(=O)N2C(C(=O)O)=C(CSc3nnc(C)s3)CSC12)c1csc(=N)[nH]1 (stereo not drawn) [Example II - 10] | 0.2 | 0.39 | 12.5 | 3.13 | 1.56 | 3.13 | 0.78 | 0.78 | 3.13 | 0.78 | 0.39 | ≤ 0.05 | 0.78 | 0.39 | 0.78 | 0.2 | 1.56 | 0.78 |
| CC(=O)OCC1=C(C(=O)O)N2C(=O)C(NC(=O)/C(=N\OC(=O)NC(C)C)c3csc(=N)[nH]3)C2SC1 (stereo not drawn) [Example II - 16] | 0.024 | 0.39 | 25 | 6.25 | 25 | 6.25 | 0.1 | 0.39 | 3.13 | 0.78 | 0.39 | ≤ 0.012 | 0.2 | 0.78 | 0.78 | 0.1 | 3.13 | 1.56 |
| CNC(=O)O/N=C(\C(=O)NC1C(=O)N2C(C(=O)O)=C(CSc3nnnn3CCO)CSC12)c1csc(=N)[nH]1 (stereo not drawn) [Example IV - 4] | ≤ 0.2 | ≤ 0.2 | 12.5 | 3.13 | 3.13 | 3.13 | ≤ 0.2 | ≤ 0.2 | 3.13 | 0.39 | ≤ 0.2 | ≤ 0.2 | 0.39 | ≤ 0.2 | 0.39 | ≤ 0.2 | 3.13 | 3.13 |
